Measurements taken from paper PMC10281575, “PfCRT mutations conferring piperaquine resistance in falciparum malaria shape the kinetics of quinoline drug binding and transport” (PLOS Pathogens, 2023).
Values joined by “and” are separate entries in the source; they are usually repeats but may differ in a detail not shown here. Equal entries are not always repeated.

Biological target: T1, PfCRT^Dd2_F145I (Plasmodium falciparum, UniProt Q8IBZ9, A220S/F145I/I356T/K76T/M74I/N326S/N75E/Q271E/R371I)
T1 construct: expressed in transfected cells; host or cells: Xenopus laevis oocytes injected with in vitro transcribed RNA (pSP64T)
T1 sequence (Q8IBZ9 1-424 M74I/N75E/K76T/F145I/A220S/Q271E/N326S/I356T/R371I): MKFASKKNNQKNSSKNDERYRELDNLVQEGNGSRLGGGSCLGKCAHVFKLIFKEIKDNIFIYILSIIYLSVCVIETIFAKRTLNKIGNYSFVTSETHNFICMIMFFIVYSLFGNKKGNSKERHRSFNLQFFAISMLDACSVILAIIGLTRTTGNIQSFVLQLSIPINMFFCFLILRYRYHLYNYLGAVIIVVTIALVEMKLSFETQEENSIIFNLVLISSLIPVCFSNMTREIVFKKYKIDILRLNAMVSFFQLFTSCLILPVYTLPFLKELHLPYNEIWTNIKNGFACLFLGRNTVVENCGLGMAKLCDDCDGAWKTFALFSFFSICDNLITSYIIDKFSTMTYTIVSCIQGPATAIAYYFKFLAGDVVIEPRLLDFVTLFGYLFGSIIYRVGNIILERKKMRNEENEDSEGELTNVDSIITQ
Test: Radiolabeled drug uptake in X. laevis oocytes expressing PfCRT^Dd2_F145I
Format: cell-based
Source text: The two kinetic parameters were derived by fitting the Michaelis-Menten equation to the kinetic data (Table 1).
A codon-optimized coding sequence of the Dd2 isoform of PfCRT (PfCRT^Dd2) was subcloned into the pSP64T expression vector [21]. To generate the necessary mutations to introduce the amino acid substitutions H97Y, F145I, M343L or G353V into the pfcrt sequence, the overlap extension method was used. A region from the 5’-untranslated Xenopus β-globin sequence to the respective 3’ region, containing the full length pfcrt coding sequence, was amplified using the following primer pairs: for the H97Y mutation, numbers 1/4 and 2/3; for the F145I mutation, numbers 1/6 and 2/5; for the M343L mutation, numbers 1/8 and 2/7; and for the G353V mutation, numbers 1/10 and 2/9 (for primers, see S2 Table). Both PCR products were used as template for amplification of the final product using primers number 1/2. The resulting fragment was cloned into the pSP64T expression vector, and the presence of the desired mutation was confirmed by sequencing.
Adult female X. laevis frogs (purchased from NASCO) were anesthetized by submersion in a solution of 0.3% (w/v) 3-amino benzoate methanesulfonate for 15 min. Sections of the ovary were surgically removed and placed in Ca^2+-free ND96 buffer supplemented with 0.1% collagenase D (w/v; Roche), 0.5% BSA (w/v) and 9 mM Na2HPO4 at 18°C for 14–16 h while gently shaking. The oocytes were then washed several times with ND96 buffer (5 mM HEPES, pH 7.5, 96 mM NaCl, 2 mM KCl, 1.8 mM CaCl2, 1 mM MgCl2), supplemented with […] gentamycin. Healthy-looking stage V-VI oocytes were manually selected and randomly grouped for injection. A codon-optimized coding sequence of PfCRT was subcloned into the pSP64T expression vector and subsequently linearized using the restriction endonuclease BamHI or SalI (New England Biolabs GmbH). RNA for injection was transcribed in vitro using the mMESSAGE mMACHINE SP6 Transcription kit (Ambion), diluted with nuclease-free water to a final concentration of 0.6 μg/μL and stored at -80°C. RNA was injected using precision-bore glass capillary tubes (3.5-inch glass capillaries; Drummond Scientific Co.), which were pulled on a vertical puller (P-87 Flaming/Brown micropipette puller, Sutter Instrument Co.) and graduated. The micropipettes were connected to a microinjector (Nanoject II Auto-Nanoliter Injector, Drummond Scientific Co.). Injection was conducted under stereomicroscopic control. 50 nL of nuclease-free water alone (control oocytes) or 50 nL of nuclease-free water containing 30 ng of RNA was injected per oocyte. Injected oocytes were kept for 72 h at 18°C in ND96 buffer with two daily buffer changes before being used for further experiments.
Drug transport assays were performed as previously described. Briefly, measurements of radiolabeled drug uptake were made over 1 h, unless otherwise specified. […] Where specified, one or more unlabeled drugs were also present at the indicated concentrations. […] The uptake assays were terminated by removing the oocytes from the reaction medium and washing them three times with 2 mL of ice-cold ND96 buffer. Each oocyte was transferred to a separate scintillation vial and lysed by the addition of 200 μL of a 5% SDS solution. The radioactivity in the sample was measured using a liquid scintillation analyser Tri-Carb 4910 TR (PerkinElmer). Water-injected oocytes were analyzed in parallel as a negative control. The buffer from each condition was measured in duplicate in parallel to each experiment to transform counts per minute into pmol of drug. Drug uptake attributable to PfCRT was determined by subtracting the background uptake from water-injected oocytes from that of PfCRT-expressing oocytes.

[1] = 50 μM CQ, pH 6.0, total uptake, one value per biological replicate
[2] = 50 μM CQ, pH 6.0, water-injected uptake subtracted, per replicate
[3] = 60 min, pH 6, per biological replicate

With CCN(CC)CCCC(C)Nc1ccnc2cc(Cl)ccc12 (stereo not shown) [CQ, chloroquine] the “PfCRTDd2_F145I-mediated CQ uptake at 10 µM CQ” value (10 µM CQ, single replicates) was 1.05 pmol oocyte-1 h-1 and 0.76 pmol oocyte-1 h-1 and 0.87 pmol oocyte-1 h-1, the “PfCRTDd2_F145I uptake of CQ at 10 min” value [1] was 5.03 pmol oocyte-1 and 4.98 pmol oocyte-1 and 4.51 pmol oocyte-1 and 3.10 pmol oocyte-1 and 1.40 pmol oocyte-1 and the “PfCRTDd2_F145I uptake of CQ at 30 min” value [1] was 5.64 pmol oocyte-1 and 11.05 pmol oocyte-1 and 6.90 pmol oocyte-1 and 4.67 pmol oocyte-1 and 6.95 pmol oocyte-1. For the same molecule, the “PfCRTDd2_F145I uptake of CQ at 60 min” value [1] was 18.17 pmol oocyte-1 and 7.02 pmol oocyte-1 and 13.61 pmol oocyte-1, the “PfCRTDd2_F145I uptake of CQ at 90 min” value [1] was 12.38 pmol oocyte-1 and 19.74 pmol oocyte-1 and 12.45 pmol oocyte-1 and 15.73 pmol oocyte-1 and the “PfCRTDd2_F145I uptake of CQ at 120 min” value [1] was 27.64 pmol oocyte-1 and 15.50 pmol oocyte-1 and 17.12 pmol oocyte-1 and 17.11 pmol oocyte-1. For the same molecule, the “PfCRTDd2_F145I uptake of CQ at 180 min” value [1] was 16.65 pmol oocyte-1 and 27.26 pmol oocyte-1 and 23.91 pmol oocyte-1 and 24.65 pmol oocyte-1 and 18.05 pmol oocyte-1, the “PfCRTDd2_F145I-mediated CQ uptake at 10 min” value [2] was 0.94 pmol oocyte-1 and 1.01 pmol oocyte-1 and 0.80 pmol oocyte-1 and 2.16 pmol oocyte-1 and 0.92 pmol oocyte-1 and the “PfCRTDd2_F145I-mediated CQ uptake at 30 min” value [2] was 0.42 pmol oocyte-1 and 1.71 pmol oocyte-1 and 1.49 pmol oocyte-1 and 3.31 pmol oocyte-1 and 2.06 pmol oocyte-1. The “PfCRTDd2_F145I-mediated CQ uptake at 60 min” value [2] was 3.80 pmol oocyte-1 and 4.28 pmol oocyte-1 and 2.84 pmol oocyte-1, the “PfCRTDd2_F145I-mediated CQ uptake at 90 min” value [2] was 3.78 pmol oocyte-1 and 4.21 pmol oocyte-1 and 3.32 pmol oocyte-1 and 5.64 pmol oocyte-1 and the “PfCRTDd2_F145I-mediated CQ uptake at 120 min” value [2] was 7.06 pmol oocyte-1 and 4.10 pmol oocyte-1 and 3.52 pmol oocyte-1 and 3.59 pmol oocyte-1. For the same molecule, the “PfCRTDd2_F145I-mediated CQ uptake at 180 min” value [2] was 3.40 pmol oocyte-1 and 6.55 pmol oocyte-1 and 4.77 pmol oocyte-1 and 7.29 pmol oocyte-1 and 3.73 pmol oocyte-1, the “PfCRTDd2_F145I-mediated CQ uptake at 50 µM CQ” value (50 µM CQ, single replicates) was 3.80 pmol oocyte-1 h-1 and 4.28 pmol oocyte-1 h-1 and 2.84 pmol oocyte-1 h-1 and the “PfCRTDd2_F145I-mediated CQ uptake at 100 µM CQ” value (100 µM CQ, single replicates) was 7.23 pmol oocyte-1 h-1 and 7.33 pmol oocyte-1 h-1 and 8.14 pmol oocyte-1 h-1. For the same molecule, the “PfCRTDd2_F145I-mediated CQ uptake at 200 µM CQ” value (200 µM CQ, single replicates) was 12.53 pmol oocyte-1 h-1 and 11.12 pmol oocyte-1 h-1 and 14.18 pmol oocyte-1 h-1, the “PfCRTDd2_F145I-mediated CQ uptake at 300 µM CQ” value (300 µM CQ, single replicates) was 13.73 pmol oocyte-1 h-1 and 16.27 pmol oocyte-1 h-1 and 18.53 pmol oocyte-1 h-1 and the “PfCRTDd2_F145I-mediated CQ uptake at 400 µM CQ” value (400 µM CQ, single replicates) was 14.23 pmol oocyte-1 h-1 and 18.19 pmol oocyte-1 h-1 and 22.31 pmol oocyte-1 h-1. For the same molecule, the “PfCRTDd2_F145I-mediated CQ uptake at 500 µM CQ” value (500 µM CQ, single replicates) was 19.16 pmol oocyte-1 h-1 and 17.39 pmol oocyte-1 h-1 and 23.99 pmol oocyte-1 h-1, the “PfCRTDd2_F145I-mediated CQ uptake at 10 µM CQ” value [3] was 1.05 pmol oocyte-1 h-1 and 0.76 pmol oocyte-1 h-1 and 0.87 pmol oocyte-1 h-1 and the “PfCRTDd2_F145I-mediated CQ uptake at 50 µM CQ” value [3] was 2.84 pmol oocyte-1 h-1 and 3.80 pmol oocyte-1 h-1 and 4.28 pmol oocyte-1 h-1. The “PfCRTDd2_F145I-mediated CQ uptake at 100 µM CQ” value [3] was 7.23 pmol oocyte-1 h-1 and 7.33 pmol oocyte-1 h-1 and 8.14 pmol oocyte-1 h-1, the “PfCRTDd2_F145I-mediated CQ uptake at 200 µM CQ” value [3] was 12.53 pmol oocyte-1 h-1 and 11.12 pmol oocyte-1 h-1 and 14.18 pmol oocyte-1 h-1 and the “PfCRTDd2_F145I-mediated CQ uptake at 300 µM CQ” value [3] was 13.73 pmol oocyte-1 h-1 and 16.27 pmol oocyte-1 h-1 and 18.53 pmol oocyte-1 h-1. The “PfCRTDd2_F145I-mediated CQ uptake at 400 µM CQ” value [3] was 14.23 pmol oocyte-1 h-1 and 18.19 pmol oocyte-1 h-1 and 22.31 pmol oocyte-1 h-1, the “PfCRTDd2_F145I-mediated CQ uptake at 500 µM CQ” value [3] was 19.16 pmol oocyte-1 h-1 and 17.39 pmol oocyte-1 h-1 and 23.99 pmol oocyte-1 h-1 and the “Vmax, maximal velocity of drug transport” value (Michaelis-Menten fit, 10-500 μM drug, 60 min, pH 6) was 35 ± 2 pmol oocyte^-1 h^-1. For the same molecule, the “increase of KM by the F145I substitution” value (versus PfCRT^Dd2) was 44%.
